Measurements as given in patent US4914125A, “(S)-emopamil for the treatment of migraine” (priority 1988, dated 1990).

How the values were obtained:
[1] = test system: serotonin; conditions: by comparison with known serotonin antagonists; cited from earlier work
[2] = test system: increase in blood pressure induced by serotonin; assay: inhibition of the increase in blood pressure induced by serotonin in the pithed rat on intravenous administration; type: in vivo, rat (male Sprague-Dawley); conditions: for ED50: iv, serotonin 0.0215 mg/kg i.v., read-out: ED 50% (dose which inhibits the increase in blood pressure due to serotonin by 50%)
Procedure: The pithing is carried out by a rod through the orbit. […] The criterion of an action of a substance is the relative inhibition (δ-%) of the increase in blood pressure induced by serotonin (δmm Hg). The quantitative evaluation is by analysis of the linear regression (y =a+b x) between log dose (mg/kg) and relative inhibition (δ%) of the increase in blood pressure due to serotonin.

[3] = test system: blood/brain barrier; assay: brain uptake index (BUI) after injection into the common carotid artery of the anesthetized rat, single passage through the cerebral capillaries; conditions: [14C]-labeled test substance, [3H]-labeled water as internal standard, HEPES-buffered Ringer solution pH=7.35, anesthetized rat
Source text: (§1) The calculated BUI values indicate the cerebral uptake as a percentage of the water uptake.

[4] = test system: blood/brain barrier; conditions: rat, in vivo
Source text: as §1

[5] = test system: serotonin; assay: serotonin-antagonistic action on oral administration; type: in vivo; conditions: (S)-emopamil vs verapamil

Row | SMILES | serotonin-antagonistic action (in words) [1] | ED50 ([2]; pithed rat, i.v.) [mg/kg] | BUI value (cerebral uptake as a percentage of the water uptake) [3] [%] | antiserotonin action (in words) ([2]; compared with known serotonin antagonists and verapamil) | serotonin-antagonistic action relative to verapamil (times) ([2]; pithed rat, i.v., (S)-emopamil vs verapamil) | passage of the blood/brain barrier (in words) [4] | superiority to verapamil in the serotonin-antagonistic action (factor) [5]
1 | COc1ccc(CCN(C)CCCC(C#N)(c2ccc(OC)c(OC)c2)C(C)C)cc1OC (centres unmarked) [Verapamil, reference compound] | weak by comparison with known serotonin antagonists | 0.36 | – | – | – | – | –
2 | CC(C)[C@@](C#N)(CCCN(C)CCc1ccccc1)c1ccccc1 [(S)-Emopamil, 2-isopropyl-5-(methyl-phenethylamino)-2-phenylvaleronitrile] | – | 0.02 | 110 | reaches the potency of known serotonin antagonists and exceeds by a multiple that of the comparison compound verapamil | 18 | passes the blood/brain barrier more rapidly and in considerably larger amounts than does verapamil | 4.6
